Assay [1] has as its target T1, TmoS (Ectopseudomonas mendocina, UniProt Q8KIY1). In words: Isothermal titration calorimetry of purified TmoS with effector molecules. It is filed as binding, Pseudomonas mendocina KR1. Conditions: for TΔS / ΔH / affinity / binding to TmoS, in words: TmoS.
In another assay the test system is TodS. Conditions: agonist / antagonist classification, ref Busch et al., 2007, cited from earlier work.
For assay [2], the system named is TmoS. In words: Isothermal titration calorimetry of purified TmoS with effector molecules. Conditions: TodS values from Busch et al., 2007. It counts as binding, Pseudomonas mendocina KR1.
Assay [3] concerns the target T1, TmoS. It counts as biochemical, Pseudomonas mendocina KR1.
The next assay concerns the target CitA. Conditions: read-out: KD for CitA; determined by ITC; ref Kaspar et al., 1999; cited from earlier work.
Another assay deals with T4MO. Conditions: T4MO substrate; ref Mitchell et al., 2002; cited from earlier work.
Setting [4] is: 100 µM effector (saturating), 30 min, 10 µM TmoS, 4°C.
[5] abbreviates: 100 µM effector, time course (Fig. 4B and C).
Where [6] appears, read: ITC, typically 10 µM TmoS titrated with 500 µM effector, pH 7.5.

Entries after “also recorded” stand apart in the source; their conditions may differ. Like-named read-outs stand apart in the source and are kept apart here.

Consider 16 molecules from article PMC3815326 (Microbial biotechnology, 2012).

T1 sequence (Q8KIY1 whole entry): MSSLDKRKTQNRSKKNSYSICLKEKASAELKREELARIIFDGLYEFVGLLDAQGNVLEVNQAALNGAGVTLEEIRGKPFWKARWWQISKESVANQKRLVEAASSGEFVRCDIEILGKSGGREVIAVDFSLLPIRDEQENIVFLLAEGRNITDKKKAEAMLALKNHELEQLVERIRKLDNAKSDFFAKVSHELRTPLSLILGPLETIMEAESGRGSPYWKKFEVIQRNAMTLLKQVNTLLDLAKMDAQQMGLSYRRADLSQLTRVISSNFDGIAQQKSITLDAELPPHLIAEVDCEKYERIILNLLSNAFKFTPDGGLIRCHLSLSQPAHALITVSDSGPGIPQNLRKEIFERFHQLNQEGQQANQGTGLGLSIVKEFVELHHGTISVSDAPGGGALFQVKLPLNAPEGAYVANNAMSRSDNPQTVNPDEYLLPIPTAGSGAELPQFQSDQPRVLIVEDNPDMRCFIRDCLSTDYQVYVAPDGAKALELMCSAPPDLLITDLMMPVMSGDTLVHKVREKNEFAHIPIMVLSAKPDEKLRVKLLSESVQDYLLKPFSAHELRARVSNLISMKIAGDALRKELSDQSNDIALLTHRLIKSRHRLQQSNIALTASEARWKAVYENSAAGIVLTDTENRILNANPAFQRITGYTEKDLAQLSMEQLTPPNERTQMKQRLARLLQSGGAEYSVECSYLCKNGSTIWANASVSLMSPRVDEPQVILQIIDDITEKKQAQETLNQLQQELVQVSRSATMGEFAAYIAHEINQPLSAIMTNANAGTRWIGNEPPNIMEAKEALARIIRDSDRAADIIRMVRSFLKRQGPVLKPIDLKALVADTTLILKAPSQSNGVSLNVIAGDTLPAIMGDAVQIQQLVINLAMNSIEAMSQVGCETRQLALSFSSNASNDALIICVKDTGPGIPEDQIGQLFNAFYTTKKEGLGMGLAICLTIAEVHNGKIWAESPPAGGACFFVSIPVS

At TmoS [1], `Cc1ccc(C)cc1` [p‐xylene] returned a Kd of 460 ± 50 nM. On TmoS [1] (ITC), the TΔS is 4.9 ± 0.29 kcal/mol and the ΔH is -3.4 ± 0.3 kcal/mol. Also, in the assay with TodS, the “Effect on TodS” value is reported as “Agonist”.
As to `CCc1ccccc1` [Ethylbenzene], on TmoS [1] (ITC), the TΔS is 4.1 ± 0.1 kcal/mol and the ΔH is -3.5 ± 0.1 kcal/mol. This molecule also had a Kd on TmoS [1] (KD, ITC, typically 10 µM TmoS titrated with 500 µM effector, pH 7.5) of 1560 ± 100 nM. The “affinity for TmoS relative to TodS” value in the assay on TmoS [2] is reported as “tighter”. Also, the “TmoS phosphorylation state in presence of effector versus control” value at TmoS [3] (setting [4]) was “increased phosphorylation”. The “Effect on TodS” value in the assay with TodS is recorded as “Agonist”.
On to `Cc1ccc(Cl)cc1` [p‐Chlorotoluene], for which, at TmoS [1] (ITC), the TΔS stood at 5.3 ± 0.1 kcal/mol; the “affinity / binding to TmoS, in words” value is listed as “nanomolar range”; the ΔH was -2.7 ± 0.1 kcal/mol. In addition, the “Effect on TodS” value with TodS is given as “Agonist”.
Regarding `O=C(O)CC(O)(CC(=O)O)C(=O)O` [citrate], the Kd on CitA was 5500 nM.
In turn, `c1ccccc1` [Benzene] had a Kd on TmoS [1] of 170 nM. Further, on TmoS [1] (ITC), the TΔS stood at 3.6 ± 0.1 kcal/mol; the “affinity / binding to TmoS, in words” value was “nanomolar range”; the ΔH was -5.3 ± 0.1 kcal/mol. Also, the “affinity for TmoS relative to TodS” value in the assay on TmoS [2] is on record as “around 4.5 times”. In addition, at TmoS [3], the “TmoS phosphorylation state in presence of effector versus control” value is “increased phosphorylation” and the “stimulation of TmoS autokinase activity in kinetics experiment” value (from here on “stimulation of TmoS autokinase activity”) was “significantly inferior”. Also, the “Effect on TodS” value in the assay with TodS is on record as “Agonist”.
chlorotoluene: the “stimulation of TmoS autokinase activity” value at TmoS [3] (setting [5]) is listed as “significantly inferior”.
Consider `Cc1cccc(C)c1` [m‐xylene], for which, on TmoS [1], the Kd worked out at 710 ± 90 nM. On TmoS [1] (ITC), this molecule showed a TΔS of 1.1 ± 0.6 kcal/mol. Further, the “Effect on TodS” value in the assay with TodS is “Agonist”.
`Cc1ccccc1C` [o‐xylene] gave a Kd at TmoS [1] of 290 ± 10 nM. The molecule further gave a ΔH on TmoS [1] (ITC) of -8.9 ± 0.1 kcal/mol. Moreover, the “TmoS phosphorylation state in presence of effector versus control” value on TmoS [3] (setting [4]) is recorded as “very similar to the control; also recorded: failed to increase; also recorded: did not trigger an increase”. Moreover, the “Effect on TodS” value in the assay with TodS was “Antagonist”; with TodS (listed as o‐ xylene) it was “antagonists”.
As to `Cc1cccc(Cl)c1` [m‐Chlorotoluene], binding on TmoS [1] was put at a Kd of 2070 ± 600 nM. At TmoS [1] (ITC), the TΔS was found to be 1.5 ± 0.8 kcal/mol and the ΔH was -5.9 ± 0.9 kcal/mol. In addition, the “Effect on TodS” value with TodS was “Agonist”.
`Cc1ccc(C)c(C)c1` [1,2,4 Trimethylbenzene] returned a Kd at TmoS [1] of 3460 ± 500 nM. At TmoS [1] (ITC), the TΔS turned out to be 5.6 ± 0.2 kcal/mol; the “affinity / binding to TmoS, in words” value is “tight binding”; the ΔH was -1.5 ± 0.2 kcal/mol. Moreover, the “TmoS phosphorylation state in presence of effector versus control” value at TmoS [3] was “very similar to the control; also recorded: failed to increase”. Also, in the assay with TodS, the “Effect on TodS” value is reported as “Antagonist”.
For the molecule `Clc1ccccc1` [Chlorobenzene], at TmoS [1], binding was characterised by a dissociation constant (Kd) of 1250 ± 70 nM. Moreover, the ΔH on TmoS [1] (ITC) was -6.9 ± 0.3 kcal/mol. The “affinity for TmoS relative to TodS” value in the assay on TmoS [2] is listed as “comparable”. Moreover, the “TmoS phosphorylation state in presence of effector versus control” value on TmoS [3] is listed as “increased phosphorylation”. Besides, the “Effect on TodS” value in the assay with TodS is on record as “Agonist”.
`Cc1ccccc1` [Toluene] had a TΔS at TmoS [1] (ITC) of 2.4 ± 0.1 kcal/mol. In addition, the ΔH at TmoS [1] (ITC) was -6.5 ± 0.1 kcal/mol. The “TmoS phosphorylation state in presence of effector versus control” value on TmoS [3] (setting [4]) was “most pronounced increase”; at TmoS [3] (100 µM effector (saturating), 30 min, 10 µM TmoS, 4°C, listed as toluene), “increased phosphorylation”. For the same molecule, on TmoS [3] (100 µM effector, kinetics of autophosphorylation), the “time of maximal TmoS phosphorylation” value stood at 40 min. Further, at TmoS [3] (setting [5]), the “stimulation of TmoS autokinase activity” value is “most pronounced increase”. For the same molecule, the Michaelis constant (Km) with T4MO is 4 µM.
As to `C1CCCCC1` [cyclohexane], on TmoS [1] (ITC), the TΔS entry was “No binding”; the “affinity / binding to TmoS, in words” value is on record as “failed to bind”; the ΔH entry is recorded as “No binding”. At TmoS [1] (setting [6]), the KA result is listed as “No binding” and the KD result is listed as “No binding”. The “Effect on TodS” value in the assay with TodS is “No binding”.
The molecule `O=[N+]([O-])c1ccccc1` [Nitrobenzene] registered a Kd on TmoS [1] of 230 ± 30 nM. Also, on TmoS [1] (ITC), the TΔS was determined as 4.5 ± 0.1 kcal/mol; the “affinity / binding to TmoS, in words” value is “nanomolar range”; the ΔH is -4.1 ± 0.1 kcal/mol. Besides, the “affinity for TmoS relative to TodS” value with TmoS [2] came out at 29 times. In addition, the “Effect on TodS” value in the assay on TodS is reported as “Agonist”.
For the molecule `Cc1ccccc1Cl` [o‐Chlorotoluene], on TmoS [1] (ITC), the TΔS stood at 2.4 ± 0.9 kcal/mol. On TmoS [1] (ITC), this molecule gave a ΔH of -5.1 ± 0.9 kcal/mol. The molecule also returned a Kd on TmoS [1] (setting [6]) of 2140 ± 400 nM. Besides, the “TmoS phosphorylation state in presence of effector versus control” value at TmoS [3] (setting [4]) is given as “very similar to the control; also recorded: failed to increase; also recorded: did not trigger an increase”. The results for the “Effect on TodS” value in the assay on TodS and in the assay on TodS (listed as o‐chlorotoluene) were “Antagonist” and “antagonists”, respectively.
In turn, `C=Cc1ccccc1` [Styrene] came in with a Kd on TmoS [1] of 810 ± 100 nM. For the same molecule, on TmoS [1] (ITC), the TΔS stood at 3.3 ± 0.3 kcal/mol; the “affinity / binding to TmoS, in words” value was “nanomolar range”; the ΔH is -4.8 ± 0.3 kcal/mol. For the same molecule, the “affinity for TmoS relative to TodS” value with TmoS [2] is given as “comparable”. Further, the “Effect on TodS” value in the assay on TodS is on record as “Agonist”.
